*1 amine or outer side, *2 acyl side, *3 side chain or, on linkers, in order; H or OH if unused. Side-chain parts run from the residue outwards. [ ]: non-standard residue; d: D form. The star is where a group is joined. X1 = O=C(O)CCCCCCCCCCCCCCC(=O)N[C@@H](CCC(=O)NCCCC[C@H](NC(=O)CC[C@H](NC(=O)CCCCCCCCCCCCCCC(=O)O)C(=O)O)C(=O)*)C(=O)O; N(2-Aminoethyl)Gly = O=C(CN(CCN[*:3])[*:1])[*:2]; C18 diacid = O=C(O)CCCCCCCCCCCCCCCCC(=O)*; C16 diacid = O=C(O)CCCCCCCCCCCCCCC(=O)*; γGlu = O=C(O)[C@H](CCC(=O)[*:2])N[*:1]; εLys = N[C@@H](CCCCN[*:1])C(=O)[*:2]; AEEA = NCCOCCOCC(=O)O; Aib = CC(C)(N)C(=O)O; Sar = CNCC(=O)O
Legend:
[1] = physchem; format: physicochemical; details: buffer, pH 7.4
Description: The assay was performed to investigate the conversion half-life of prodrug to drug of the prodrugs of the invention. The conversion half-life was investigated in vitro at pH 7.4 upon incubation at 37° C.
Test compounds were dissolved to a concentration of 100 μM in phosphate-buffered saline (140 mM NaCl, 2.07 mM KCl, 8.05 mM Na2HPO4, 1.96 mM KH2PO4, pH 7.4). Solution pH was measured after dissolution and adjusted to pH 7.4 with aqueous NaOH if necessary. The solution was filtered through a 0.22 μm syringe filter, then incubated in a water bath at 37° C. Aliquots were withdrawn at defined timepoints, e.g. every 24-72 hours, for LCMS analysis.
LCMS analysis was performed using the procedure defined in LCMS_A above. The AUC of the prodrug, active drug, and DKP were determined using UV detection at 214 nm, and the ratio of prodrug AUC over total AUC of prodrug plus active drug plus DKP was calculated. The negative natural logarithm of this ratio was plotted over time, and a linear regression of this relationship was then performed.
The prodrug to drug conversion half-life of the compounds of the invention was measured as described in General Methods for Measuring Conversion Half-life.

[2] = in vivo; design: species or system beagle dogs; details: dog, po, 300 mg; for Tmax / half-life: male, beagle
Description: The purpose of this method is to determine the terminal half-life and plasma exposure in vivo of the compounds of the present invention after p.o. administration to beagle dogs, i.e. the terminal half-life and concentration of test substance that reaches circulation with time. This is done in a pharmacokinetic (PK) study, where these parameters of the compound in question are determined. By terminal half-life is generally meant the period of time it takes to halve a certain plasma concentration, measured after the initial distribution phase.
Tablet compositions comprising the test compounds obtained from Example 1 and SNAC (sodium N-(8-(2-hydroxybenzoyl)amino)caprylate) were prepared according to methods known to the person skilled in the art by mixing test substance with roller compacted SNAC and magnesium stearate as e.g. described in WO 2019/149880. Each tablet was comprised of 7.7 mg magnesium stearate, 2-4 mg of each compound tested, and 300 mg SNAC.
Male beagle dogs, 1-7 years of age and weighing 9-17 kg during the study period, were included in the study. The dogs were dosed in a fasting state. The dogs were group housed in pens (12 hours light: 12 hours dark), and fed individually and restrictedly once daily with Royal Canin Medium Adult dog food (Royal Canin Products, China Branch, or Brogaarden A/S, Denmark). The dogs were used for repeated PK studies with a suitable wash-out period between successive dosing. An appropriate acclimatisation period was given prior to initiation of the first PK study. All handling, dosing, and blood sampling of the animals were performed by trained and skilled staff. Before the studies, the dogs were fasted overnight and from 0 to 4 hours after dosing. The dogs were restricted to water 1 hour before dosing until 4 hours after dosing, but otherwise had adlibitum access to water during the whole period.
The compositions were administered by a single oral dosing to the dogs in groups of 6-8 dogs. The tablets were administered in the following manner: 10 min prior to tablet administration, the dogs may be dosed subcutaneously with approximately 3 nmol/kg of SEQ ID NO.: 7 ([…]), then tablets were placed in the back of the mouth of the dog to prevent chewing. The mouth was then closed, and 10 mL of tap water was given by syringe or gavage to facilitate swallowing of the tablet.
One blood sample was drawn before dosing, and additional samples were drawn at predefined time points after dosing, such as for up to 600 hours, to adequately cover the full plasma concentration-time absorption profile of the test substance. For each blood sample time point, approximately 0.8 mL of whole blood was collected in a 1.5 mL EDTA-coated tube, which was gently turned to mix the sample with EDTA. Blood samples were collected in EDTA buffer (8 mM) and then centrifuged at 4° C. and 2000 g for 10 minutes. Plasma was pipetted into Micronic tubes on dry ice, and kept at −20° C. or lower until analysis. Blood samples were taken as appropriate, for example from a venflon in the cephalic vein in the front leg for the first 2 hours and then with syringe from the jugular vein for the rest of the time points. The first few drops were allowed to drain from the venflon to avoid heparin saline from the venflon in the sample. All blood samples were collected into test tubes containing EDTA for stabilisation and kept on ice until centrifugation. Plasma was separated from whole blood by centrifugation and the plasma was stored at −20° C. or lower until analysis.
The plasma was analysed for test substance using LC-MS (Liquid Chromatography-Mass Spectrometry) as known to the person skilled in the art. […]

Compound | half-life at 100 μM [1] [h] | AUC/Dose [2] [kg·h/L] | Cmax/Dose [2] [kg/L] | Tmax [2] [h] | half-life [2] [h]
CC[C@H](C)[C@H](NC(=O)[C@H](CC(C)C)NC(=O)[C@H](Cc1c[nH]c2ccccc12)NC(=O)[C@H](CCC(N)=O)NC(=O)[C@@H](NC(=O)[C@H](Cc1ccccc1)NC(=O)[C@H](C)NC(=O)[C@H](CCCCNC(=O)COCCOCCNC(=O)COCCOCCNC(=O)CC[C@H](NC(=O)CCCCCCCCCCCCCCCCCCC(=O)O)C(=O)O)NC(=O)[C@H](CCC(N)=O)NC(=O)[C@H](C)NC(=O)[C@@H](NC(=O)[C@H](CCCCN)NC(=O)[C@H](CC(=O)O)NC(=O)[C@H](CC(C)C)NC(=O)C(C)(C)NC(=O)[C@@H](NC(=O)[C@H](CO)NC(=O)[C@H](Cc1ccc(O)cc1)NC(=O)[C@H](CC(=O)O)NC(=O)[C@H](CO)NC(=O)[C@@H](NC(=O)[C@H](Cc1ccccc1)NC(=O)[C@@H](NC(=O)CNC(=O)[C@H](CCC(=O)O)NC(=O)C(C)(C)NC(=O)[C@H](Cc1ccc(O)cc1)NC(=O)CN(C)C(=O)[C@@H](N)CCCCNC(=O)CC[C@H](NC(=O)CCCCCCCCCCCCCCC(=O)O)C(=O)O)[C@@H](C)O)[C@@H](C)O)[C@@H](C)CC)[C@@H](C)CC)C(C)C)C(=O)N[C@@H](C)C(=O)NCC(=O)NCC(=O)N1CCC[C@H]1C(=O)N[C@@H](CO)C(=O)N[C@@H](CO)C(=O)NCC(=O)N[C@@H](C)C(=O)N1CCC[C@H]1C(=O)N1CCC[C@H]1C(=O)N1CCC[C@H]1C(=O)N[C@@H](CO)C(N)=O [Compound 18] | 101 | 13.3 | 0.15 | 4 | 88
H-G[N(2-Aminoethyl)Gly]([γGlu-C16 diacid])Y[Aib]EGTFTSDYSILLEEQAAREFIEWLLAGGPSK([AEEA-AEEA-γGlu-C16 diacid])GAPPPS-OH [Compound 2] | 363 | 22.9 | 0.18 | 4 | 142
H-K(X1)[Sar]Y[Aib]EGTFTSDYSILLEEQAAREFIEWLLAGGPSK([εLys-εLys-γGlu-C16 diacid])GAPPPS-OH [Compound 14] | 166 | 43.6 | 0.38 | 5.5 | 119
H-K([γGlu-C16 diacid])[Sar]Y[Aib]EGTFTSDYSILLEEQAAREFIEWLLAGGPSK([εLys-εLys-γGlu-C16 diacid])GAPPPS-OH [Compound 12] | 129 | 50.8 | 0.46 | 1.3 | 143
H-K([γGlu-C16 diacid])[Sar]Y[Aib]EGTFTSDYSILLEK([εLys-εLys-γGlu-C18 diacid])QAAREFIEWLLAGGPSSGAPPPS-OH [Compound 16] | 117 | 67.6 | 0.73 | 4 | 96
H-K([γGlu-C18 diacid])[Sar]Y[Aib]EGTFTSDYSILLEEQAAREFIEWLLAGGPSK([εLys-εLys-γGlu-C16 diacid])GAPPPS-OH [Compound 13] | 137 | 41.3 | 0.36 | 4.3 | 121
H-K([γGlu-C18 diacid])[Sar]Y[Aib]EGTFTSDYSILLEEQAAREFIEWLLAGGPSK([εLys-εLys-γGlu-C18 diacid])GAPPPS-OH [Compound 15] | 127 | 21.7 | 0.20 | 1.5 | 124
H-L[N(2-Aminoethyl)Gly]([γGlu-C16 diacid])Y[Aib]EGTFTSDYSILLEEQAAREFIEWLLAGGPSK([AEEA-AEEA-γGlu-C16 diacid])GAPPPS-OH [Compound 5] | 74 | 23.4 | 0.25 | 7 | 106
